Read-outs that look alike come from different tables or passages of the source.
Key:
Test in all cases: Synergy of cannabidiol with cell-wall disrupting agent (CBD MIC in combination, FICI)
Format in all cases: cell-based
[1] = system: Acinetobacter baumannii 03.021.1 (GN_039), Colistin resistant; details: for MIC: Acinetobacter baumannii
Experimental: (§1) The compounds were stored short term at 4° C.
(§2) Analysis was performed using Microsoft Excel.

[2] = system: Pseudomonas aeruginosa FADDI-PA067 (GN_177), Polymyxin resistant; details: for MIC: Pseudomonas aeruginosa
Experimental: as §1, §2

[3] = system: Acinetobacter baumannii 03.021.1 (GN_038), Colistin resistant; details: for MIC: Acinetobacter baumannii
Experimental: as §1, §2

[4] = Example 9, GN_039, listed as CBD
[5] = Example 9, GN_038, listed as CBD

C=C(C)C1CCC(C)=CC1c1c(O)cc(CCCCC)cc1O (centres unmarked) [Cannabidiol, 2-[3-methyl-6-(1-methylethenyl)-2-cyclohexen-1-yl]-5-pentyl-1,3-benzenediol]
MIC ([1]; read-out: CBD MIC with MCC_00636 at concentration 0.25 μg/mL, Example 8, GN_039): 4 µg/mL | MIC ([1]; read-out: CBD MIC with MCC_00636 at concentration 0.5 μg/mL, Example 8, GN_039): 0.000977 µg/mL | MIC ([1]; read-out: CBD MIC with MCC_00636 at concentration 1 μg/mL, Example 8, GN_039): 0.000977 µg/mL | MIC ([1]; read-out: CBD MIC with MCC_00636 at concentration […], Example 8, GN_039): 4 µg/mL | MIC ([1]; read-out: CBD MIC with MCC_09222 at concentration 16 μg/mL, Example 9, GN_039): 1 µg/mL | MIC ([1]; read-out: CBD MIC with MCC_09222 at concentration 32 μg/mL, Example 9, GN_039): 0.5 µg/mL | MIC ([1]; read-out: CBD MIC with MCC_09222 at concentration 64 μg/mL, Example 9, GN_039): 0.000977 µg/mL | MIC ([1]; read-out: CBD MIC with MCC_09222 at concentration 128 μg/mL, Example 9, GN_039): 0.000977 µg/mL | cannabidiol combined with Polymyxin B: synergy ([1]; Example 8): synergy | cannabidiol in combination with MCC_09222: synergy ([1]; Example 9): synergistic effect | CBD MIC with MCC_09222 at concentration 16 μg/mL [1, 4]: 2 µg/mL | CBD MIC with MCC_09222 at concentration 32 μg/mL [1, 4]: 1 µg/mL | cannabidiol combined with Polymyxin B: synergy ([2]; Example 8): synergy | MIC ([2]; read-out: CBD MIC with MCC_00636 at concentration 0.015625 μg/mL): > 256 µg/mL | MIC ([2]; read-out: CBD MIC with MCC_00636 at concentration 0.03125 μg/mL): > 256 µg/mL | MIC ([2]; read-out: CBD MIC with MCC_00636 at concentration 0.0625 μg/mL): > 256 µg/mL | MIC ([2]; read-out: CBD MIC with MCC_00636 at concentration 0.25 μg/mL): > 256 µg/mL | MIC ([2]; read-out: CBD MIC with MCC_00636 at concentration 0.5 μg/mL): 4 µg/mL | MIC ([2]; read-out: CBD MIC with MCC_00636 at concentration 1 μg/mL): 0.5 µg/mL | MIC ([2]; read-out: CBD MIC with MCC_00636 at concentration 2 μg/mL): 0.000977 µg/mL | MIC ([2]; read-out: CBD MIC with MCC_00636 at concentration 4 μg/mL): 0.000977 µg/mL | MIC ([2]; read-out: CBD MIC with MCC_00636 at concentration […]): > 256 µg/mL | MIC ([3]; read-out: CBD MIC with MCC_00636 at concentration 0.25 μg/mL, Example 8, GN_038): 2 µg/mL | MIC ([3]; read-out: CBD MIC with MCC_00636 at concentration 0.5 μg/mL, Example 8, GN_038): 0.000977 µg/mL | MIC ([3]; read-out: CBD MIC with MCC_00636 at concentration […], Example 8, GN_038): 32 µg/mL | MIC ([3]; read-out: CBD MIC with MCC_09222 at concentration 8 μg/mL, Example 9, GN_038): 4 µg/mL | MIC ([3]; read-out: CBD MIC with MCC_09222 at concentration 16 μg/mL, Example 9, GN_038): 2 µg/mL | MIC ([3]; read-out: CBD MIC with MCC_09222 at concentration 32 μg/mL, Example 9, GN_038): 1 µg/mL | MIC ([3]; read-out: CBD MIC with MCC_09222 at concentration 64 μg/mL, Example 9, GN_038): 0.000977 µg/mL | MIC ([3]; read-out: CBD MIC with MCC_09222 at concentration 128 μg/mL, Example 9, GN_038): 0.000977 µg/mL | cannabidiol combined with Polymyxin B: synergy ([3]; Example 8): synergy | CBD MIC with MCC_00636 at concentration 0.25 μg/mL ([3]; Example 8, GN_038, listed as CBD): 4 µg/mL | cannabidiol in combination with MCC_09222: synergy ([3]; Example 9): synergistic effect | CBD MIC with MCC_09222 at concentration 8 μg/mL [3, 5]: 2 µg/mL | CBD MIC with MCC_09222 at concentration 32 μg/mL [3, 5]: 0.5 µg/mL

Source: patent US20230013669A1, “Antibacterial Treatment Using a Cannabinoid and an Active Agent” (priority 2019, published 2023)
